pIC50: −log10 of the molar value.
What was measured:
Experiment in all cases: Enzyme inhibiting activity of MMPs, fluorogenic peptide substrate
Type in all cases: biochemical
[1] = target: T1, MMP-2 (Homo sapiens, UniProt P08253); conditions: substrate MOCAc-Pro-Leu-Gly-Leu-A2Pr(DNP)-Ala-Arg-NH2, fluorescent intensity
T1 construct: purchased Calbiochem (EMD/MERCK Biosciences)
T1 sequence (P08253 110-660): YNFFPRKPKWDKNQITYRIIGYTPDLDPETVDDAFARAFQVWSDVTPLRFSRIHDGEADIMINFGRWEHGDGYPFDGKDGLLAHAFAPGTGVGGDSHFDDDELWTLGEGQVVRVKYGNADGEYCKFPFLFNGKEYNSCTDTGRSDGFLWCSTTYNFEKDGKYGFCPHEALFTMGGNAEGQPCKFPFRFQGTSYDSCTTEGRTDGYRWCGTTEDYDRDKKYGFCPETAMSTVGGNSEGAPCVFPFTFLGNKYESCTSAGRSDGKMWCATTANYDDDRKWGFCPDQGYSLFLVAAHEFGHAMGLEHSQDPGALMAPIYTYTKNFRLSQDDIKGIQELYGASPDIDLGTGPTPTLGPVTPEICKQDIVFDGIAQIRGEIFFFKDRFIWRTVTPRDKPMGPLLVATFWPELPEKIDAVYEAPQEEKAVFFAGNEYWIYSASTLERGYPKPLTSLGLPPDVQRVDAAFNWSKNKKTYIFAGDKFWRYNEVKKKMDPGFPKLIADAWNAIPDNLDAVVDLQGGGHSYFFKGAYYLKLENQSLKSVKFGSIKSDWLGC
Outline: (§1)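 Recombinant human enzymes with the fluorogenic substrate MOCAc-Pro-Leu-Gly-Leu-A2Pr(DNP)-Ala-Arg-NH2. Fluorescence was read for enzyme+substrate±inhibitor and substrate±inhibitor blanks.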

[2] = target: T2, MMP-9 (Homo sapiens, UniProt P14780); conditions: substrate MOCAc-Pro-Leu-Gly-Leu-A2Pr(DNP)-Ala-Arg-NH2, fluorescent intensity
T2 construct: purchased Calbiochem (EMD/MERCK Biosciences)
Outline: as §1

[3] = target: T3, MMP-13 (Homo sapiens, UniProt P45452); conditions: APMA-activated proenzyme; substrate MOCAc-Pro-Leu-Gly-Leu-A2Pr(DNP)-Ala-Arg-NH2, fluorescent intensity; read-out: IC50 MMP-13
T3 construct: purchased Calbiochem (EMD/MERCK Biosciences)
Outline: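 Pro-MMP-13 was activated with 1 mM APMA at 37° C for 2 h in 50 mM Tris-HCl pH 7.6, 0.3 M NaCl, 10 mM CaCl2, 0.005% Brij35. Activity was read by fluorescence using MOCAc-Pro-Leu-Gly-Leu-A2Pr(DNP)-Ala-Arg-NH2 substrate, with enzyme and inhibitor blank corrections. IC50 is the concentration giving 50% inhibition.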

T2 sequence (P14780 94-707): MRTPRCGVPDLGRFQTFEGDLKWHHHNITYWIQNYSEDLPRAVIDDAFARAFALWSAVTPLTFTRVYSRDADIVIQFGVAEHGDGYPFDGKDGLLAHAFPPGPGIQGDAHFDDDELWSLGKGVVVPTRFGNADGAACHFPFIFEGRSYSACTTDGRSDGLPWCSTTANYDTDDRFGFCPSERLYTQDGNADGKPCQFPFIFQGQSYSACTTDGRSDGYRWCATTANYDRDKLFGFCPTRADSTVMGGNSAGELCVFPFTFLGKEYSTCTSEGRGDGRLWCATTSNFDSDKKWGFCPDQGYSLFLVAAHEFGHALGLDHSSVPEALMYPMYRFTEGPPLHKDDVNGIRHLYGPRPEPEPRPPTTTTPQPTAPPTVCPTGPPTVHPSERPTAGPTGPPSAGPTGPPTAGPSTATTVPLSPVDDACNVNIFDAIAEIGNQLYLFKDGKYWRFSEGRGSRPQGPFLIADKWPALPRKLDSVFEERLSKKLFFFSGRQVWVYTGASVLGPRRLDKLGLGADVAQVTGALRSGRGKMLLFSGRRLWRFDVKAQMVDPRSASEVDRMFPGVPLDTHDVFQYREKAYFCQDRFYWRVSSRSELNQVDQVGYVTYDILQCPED

Row | SMILES | pIC50 [1] | pIC50 [2] | pIC50 [3]
1 | CC(C)[C@@H](NS(=O)(=O)N1CCN(c2ccc(C#Cc3ccc4c(c3)c(=O)n(Cc3ccc(F)cc3)c(=O)n4C)cc2)CC1)C(=O)O [Compound V-60, (R)-2-(4-{4-[3-(4-fluorobenzyl)-1-methyl-2,4-dioxo-1,2,3,4-tetrahydroquinazolin-6-ylethynyl]-phenyl}-piperazine-1-sulfonylamino)-3-methylbutanoic acid] | < 5.00 | < 5.00 | 7.68
2 | CC(C)[C@@H](NS(=O)(=O)N1CCN(c2ccc(C#Cc3ccc4[nH]c(=O)n(Cc5cccc(F)c5)c(=O)c4c3)cc2)CC1)C(=O)O [Compound V-65, (R)-2-(4-{4-[3-(3-fluorobenzyl)-2,4-dioxo-1,2,3,4-tetrahydroquinazolin-6-ylethynyl]-phenyl}-piperazine-1-sulfonylamino)-3-methylbutanoic acid] | < 5.00 | < 5.00 | 7.77
3 | C[C@@H](NS(=O)(=O)N1CCN(c2ccc(C#Cc3ccc4c(c3)c(=O)n(Cc3ccc(F)cc3)c(=O)n4C)cc2)CC1)C(=O)O [Compound V-71, (R)-2-(4-{4-[3-(4-fluorobenzyl)-1-methyl-2,4-dioxo-1,2,3,4-tetrahydroquinazolin-6-ylethynyl]-phenyl}-piperazine-1-sulfonylamino)-proponic acid] | < 5.00 | < 5.00 | 8.10
4 | CC(C)[C@@H](NS(=O)(=O)N1CCN(c2ccc(C#Cc3ccc4c(c3)c(=O)n(Cc3ccc(F)c(F)c3)c(=O)n4C)cc2)CC1)C(=O)O [Compound V-76, (R)-2-(4-{4-[3-(3,4-difluorobenzyl)-1-methyl-2,4-dioxo-1,2,3,4-tetrahydroquinazolin-6-ylethynyl]-phenyl}-piperazine-1-sulfonylamino)-3-methylbutanoic acid] | < 5.00 | < 5.00 | 7.74
5 | CC(C)[C@@H](NS(=O)(=O)N1CCN(c2ccc(C#Cc3nc(-c4cccc(OCc5ccc(C(N)=O)cc5)c4)cs3)cc2)CC1)C(=O)O [Compound V-78, (R)-2-[4-(4-{4-[3-(4-carbamoylbenzyloxy)-phenyl]-thiazol-2-ylethynyl}-phenyl)-piperazine-1-sulfonylamino]-3-methylbutanoic acid] | < 5.00 | < 5.00 | 8.40
6 | CNC(=O)c1ccc(COc2cccc(-c3csc(C#Cc4ccc(N5CCN(S(=O)(=O)N[C@@H](C(=O)O)C(C)C)CC5)cc4)n3)c2)cc1 [Compound V-79, (R)-3-methyl-2-[4-(4-{4-[3-(4-methylcarbamoylbenzyloxy)-phenyl]-thiazol-2-ylethynyl}-phenyl)-piperazine-1-sulfonylamino]-butanoic acid] | < 5.00 | < 5.00 | 8.40
7 | C[C@@H](NS(=O)(=O)N1CCN(c2ccc(C#Cc3ccnc(C(=O)NCc4ccc(Cl)cc4)c3)cc2)CC1)C(=O)O [III-1, (R)-2-(4-{4-[2-(4-chrolobenzylcarbamoyl)-pyridin-4-ylethynyl]-phenyl}-piperazine-1-sulfonylamino)-proponic acid] | 5.00 to 6.00 | < 5.00 | 8.52

The next lines start with the values.

Row | pIC50 [1] | pIC50 [2] | pIC50 [3] | SMILES
8 | 5.00 to 6.00 | < 5.00 | 7.80 | CC(=O)c1csc2ccc(C#Cc3ccc(N4CCN(S(=O)(=O)N[C@H](C)C(=O)O)CC4)cc3)cc12 [Compound V-56, (R)-2-{4-[4-(3-acetylbenzo[b]thiophen-5-ylethynyl)-phenyl]-piperazine-1-sulfonylamino}-proponic acid]
9 | 5.00 to 6.00 | < 5.00 | 7.89 | CCc1cnc(-c2cc(C#Cc3ccc(N4CCN(S(=O)(=O)N[C@@H](C(=O)O)C(C)C)CC4)cc3)ccc2OCCOC)o1 [Compound V-57, (R)-2-(4-{4-[3-(5-ethyloxazol-2-yl)-4-(2-methoxyethoxy)-phenylethynyl]-phenyl}-piperazine-1-sulfonylamino)-3-methylbutanoic acid]
10 | 5.00 to 6.00 | < 5.00 | 8.00 | CC(C)[C@@H](NS(=O)(=O)N1CCN(c2ccc(C#Cc3ccc4ncn(Cc5ccc(F)cc5)c(=O)c4c3)cc2)CC1)C(=O)O [Compound V-59, (R)-2-(4-{4-[3-(4-fluorobenzyl)-4-oxo-3,4-dihydroquinazolin-6-ylethynyl]-phenyl}-piperazine-1-sulfonylamino)-3-methylbutanoic acid]
11 | 5.00 to 6.00 | < 5.00 | 8.10 | CC(C)[C@@H](NS(=O)(=O)N1CCN(c2ccc(C#Cc3ccc4[nH]c(=O)n(CC#N)c(=O)c4c3)cc2)CC1)C(=O)O [Compound V-63, (R)-2-{4-[4-(3-cyanomethyl-2,4-dioxo-1,2,3,4-tetrahydroquinazolin-6-ylethynyl)-phenyl]-piperazine-1-sulfonylamino}-3-methylbutanoic acid]
12 | 5.00 to 6.00 | 5.00 to 6.00 | 8.30 | CC(C)[C@@H](NS(=O)(=O)N1CCN(c2ccc(C#Cc3ccc4c(c3)c(=O)n(CC#N)c(=O)n4C)cc2)CC1)C(=O)O [Compound V-68, (R)-2-{4-[4-(3-cyanomethyl-1-methyl-2,4-dioxo-1,2,3,4-tetrahydroquinazolin-6-ylethynyl)-phenyl]-piperazine-1-sulfonylamino}-3-methylbutanoic acid]
13 | 5.00 to 6.00 | < 5.00 | 7.80 | CC(C)[C@@H](NS(=O)(=O)N1CCN(c2ccc(C#Cc3ccc4c(c3)C(=O)N(Cc3cccc(F)c3)C(C)(C)N4)cc2)CC1)C(=O)O [Compound V-74, (R)-2(4-{4-[3-(3-fluorobenzyl)-2,2-dimethyl4-oxo-1,2,3,4-tetrahydroquinazolin-6-ylethynyl]-phenyl}-piperazine-1-sulfonylamino)-3-methylbutanoic acid]
14 | 5.00 to 6.00 | < 5.00 | 8.70 | CC(C)[C@@H](NS(=O)(=O)N1CCN(c2ccc(C#Cc3ccnc(C(=O)NCc4ccc5oc(=O)n(C)c5c4)c3)cc2)CC1)C(=O)O [Compound V-85, (R)-3-methyl-2-[4-(4-{2-[(3-methyl-2-oxo-2,3-dihydrobenzoxazol-5-ylmethyl)-carbamoyl]-pyridin-4-ylethynyl}-phenyl)-piperazine-1-sulfonylamino]-butanoic acid]
15 | 5.00 to 6.00 | < 5.00 | 7.92 | CC(=O)Nc1cccc(-c2csc(C#Cc3ccc(N4CCN(S(=O)(=O)N[C@@H](C(=O)O)C(C)C)CC4)cc3)n2)c1 [Compound V-86, (R)-2-(4-{4-[4-(3-acetylaminophenyl)-thiazol-2-ylethynyl]-phenyl}-piperazine-1-sulfonylamino)-3-methylbutanoic acid]
16 | 5.00 to 6.00 | < 5.00 | 7.62 | CC(C)[C@@H](NS(=O)(=O)N1CCN(c2ccc(C#Cc3ccc4ccnc(C(N)=O)c4c3)cc2)CC1)C(=O)O [Compound V-88, (R)-2-{4-[4-(1-carbamoylisoquinolin-7-ylethynyl)-phenyl]-piperazine-1-sulfonylamino}-3-methylbutanoic acid]
17 | 5.00 to 6.00 | < 5.00 | 8.05 | COCCOc1ccc(C#Cc2ccc(N3CCN(S(=O)(=O)N[C@@H](C(=O)O)C(C)C)CC3)cc2)cc1C(=O)NCC#N [III-2, (R)-2-(4-{4-[3-(cyanomethylcarbamoyl)-4-(2-methoxyethoxy)-phenylethynyl]-phenyl}-piperazine-1-sulfonylamino)-3-methylbutanoic acid]

Reference: patent US20100099676A1 (SHIONOGI & CO., LTD., priority 2006, published 2010)
